Data set [1] concerns Hs578T. The experiment in a line: Wound healing migration assay. Format: cell-based. The settings on record: Homo sapiens, Hs-578T; HS578T cell line; Table Ib. The gist of the method:
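Compound exposure at 12.5, 6.25 and 3.125 μM, with DMSO control, on scratch-wounded monolayers (150000 cells/24 well, overnight). Wound closure imaged by microscopy, fixed with crystal violet after 48 h or 72 h depending on cell line; IC50 is the concentration giving 50% wound size between t0 and t48/t72.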

Data set [2] deals with Hs578T. The experiment in a line: Cell vitality assay (ATP assay, CellTiter-Glo). Format: cell-based. The settings on record: Homo sapiens, Hs-578T; HS578T cell line, 72 h; Table Ib; read-out: IC50 ATP-Assay HS578T after 72 h. The gist of the method:
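Luminescent ATP read-out of viable cells; IC50 = concentration at which ATP falls to 50% of DMSO control. Cells seeded at 1000/well, treated 72 h with seven concentrations from 0.195 to 12.5 μM.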

In data set [3] the target is T1, wild type AXL (wtAXL) receptor tyrosine kinase (Homo sapiens, UniProt P30530).
T1 construct: WtAXL cDNA was cloned into vector pLXSN(ESK) and transfected into Phoenix E packaging cells; expressed in transfected cells; host or cells: NIH3T3 N7 (mouse fibroblasts), retrovirally infected, clone 22
T1 sequence (P30530 26-894): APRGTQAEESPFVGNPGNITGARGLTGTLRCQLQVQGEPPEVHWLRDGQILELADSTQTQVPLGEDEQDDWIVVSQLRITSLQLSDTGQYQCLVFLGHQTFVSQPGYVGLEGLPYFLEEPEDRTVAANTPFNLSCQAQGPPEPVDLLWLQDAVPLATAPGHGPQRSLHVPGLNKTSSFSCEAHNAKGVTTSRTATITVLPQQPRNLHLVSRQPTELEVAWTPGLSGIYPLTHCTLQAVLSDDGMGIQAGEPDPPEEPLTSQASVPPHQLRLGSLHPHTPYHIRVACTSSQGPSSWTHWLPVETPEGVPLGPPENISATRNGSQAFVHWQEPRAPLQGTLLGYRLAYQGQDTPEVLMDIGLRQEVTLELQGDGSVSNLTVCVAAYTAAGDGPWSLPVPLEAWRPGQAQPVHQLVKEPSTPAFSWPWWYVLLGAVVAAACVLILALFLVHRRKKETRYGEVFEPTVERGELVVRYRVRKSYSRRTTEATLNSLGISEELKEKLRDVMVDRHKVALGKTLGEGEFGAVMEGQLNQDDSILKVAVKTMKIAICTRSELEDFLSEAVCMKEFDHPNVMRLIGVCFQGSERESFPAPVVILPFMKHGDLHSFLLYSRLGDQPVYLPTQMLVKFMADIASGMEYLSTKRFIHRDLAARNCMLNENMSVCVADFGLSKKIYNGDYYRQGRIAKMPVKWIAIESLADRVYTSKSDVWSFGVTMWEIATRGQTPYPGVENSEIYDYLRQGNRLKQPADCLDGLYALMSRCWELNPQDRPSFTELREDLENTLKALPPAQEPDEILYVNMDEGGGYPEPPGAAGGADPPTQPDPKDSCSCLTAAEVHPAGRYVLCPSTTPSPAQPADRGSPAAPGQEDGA
The experiment in a line: NIH-3T3-AXL cellular kinase assay (pY-AXL-ELISA). Format: cell-based. The note with it: NIH-3T3-AXL (clone 22) cells, serum depleted, compounds 1 h; Table Ia. In outline:
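Phospho-AXL was quantified by ELISA in lysates (4G10-biotin, streptavidin-AP, AttoPhos, 430/560 nm read at 90 min). The cells were monoclonal NIH3T3 lines stably transduced with human wtAXL, exposed to serial compound dilutions for 1 h before lysis.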
For orientation: In an ELISA, binding on a coated surface is turned into a signal by an enzyme label.

Data set [4] concerns Hs578T. The experiment in a line: Matrigel outgrowth assay/branching assay. The settings on record: Homo sapiens, Hs-578T; HS578T cell line; Table Ib; read-out: Total branching inhibition in Matrigel HS578T. Format: cell-based. The gist of the method: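 Cells (5000/well) were seeded onto polymerized 3 mg/ml Matrigel with compound at 3.125, 1.56 or 0.78 μM versus DMSO. Branching was imaged by inverted microscopy (5× objective) at 48, 72 and 96 h. Only concentrations giving total branching inhibition scored positive.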

pIC50: −log10 of the molar value.

One may read the melting point as the temperature of the solid-liquid transition. Regarding `COc1cc2c(Oc3ccc(NS(=O)(=O)c4csc5ccccc45)cc3F)ccnc2cc1OCCCN1CCCCC1C` (stereo not shown) [Example 147, Benzo[b]thiophene-3-sulfonic acid (3-fluoro-4-{6-methoxy-7-[3-(2-methyl-piperidin-1-yl)-propoxy]-quinolin-4-yloxy}-phenyl)-amide], the melting point fell in the range of 120 to 122 °C. For the same molecule, in the data set with Hs578T [1], the pIC50 is at least 4.90. Further, the pIC50 in the data set with Hs578T [2] was at least 4.90. The pIC50 in data set [3] is 5.52 to 6.30. The pIC50 with Hs578T [4] is at least 5.00.

`COc1cc2c(Oc3ccc(NS(=O)(=O)c4ccco4)cc3F)ccnc2cc1OCCCN1CCCCC1C` (stereo not shown) [Example 148, Furan-2-sulfonic acid (3-fluoro-4-{6-methoxy-7-[3-(2-methyl-piperidin-1-yl)-propoxy]-quinolin-4-yloxy}-phenyl)-amide] yielded a melting point of 118 to 119 °C. The pIC50 in the data set with Hs578T [1] is 4.30 to 4.90. Moreover, the pIC50 in the data set with Hs578T [2] was at least 4.90. The molecule also had a pIC50 in data set [3] of 5.52 to 6.30. Moreover, in the data set on Hs578T [4], the pIC50 was 4.60 to 5.00.

With `COc1cc2c(Oc3ccc(NS(=O)(=O)c4c(F)cccc4F)cc3F)ccnc2cc1OCCCN1CCCCC1C` (stereo not shown) [Example 152, 2,6-Difluoro-N-(3-fluoro-4-{6-methoxy-7-[3-(2-methyl-piperidin-1-yl)-propoxy]-quinolin-4-yloxy}-phenyl)-benzenesulfonamide], the melting point lay within 132 to 134 °C. The molecule further gave a pIC50 in the data set on Hs578T [1] of at least 4.90. Further, the pIC50 in the data set with Hs578T [2] was at least 4.90. In data set [3], this molecule had a pIC50 of over 6.30. Also, in the data set on Hs578T [4], the pIC50 is at least 5.00.

`COc1cc2c(Oc3ccc(NS(=O)(=O)c4ccccc4OC(F)(F)F)cc3F)ccnc2cc1OCCCN1CCCCC1C` (stereo not shown) [Example 153, N-(3-Fluoro-4-{6-methoxy-7-[3-(2-methyl-piperidin-1-yl)-propoxy]-quinolin-4-yloxy}-phenyl)-2-trifluoromethoxy-benzenesulfonamide]: the melting point is 90 to 92 °C. For the same molecule, in the data set with Hs578T [1], the pIC50 was at least 4.90. Also, the pIC50 with Hs578T [2] is at least 4.90. Moreover, the pIC50 in data set [3] is over 6.30. In the data set with Hs578T [4], the pIC50 was 4.60 to 5.00.

In the case of `COc1cc2c(Oc3ccc(NS(=O)(=O)c4cc(Cl)ccc4Cl)cc3F)ccnc2cc1OCCCN1CCCCC1C` (stereo not shown) [Example 154, 2,5-Dichloro-N-(3-fluoro-4-{6-methoxy-7-[3-(2-methyl-piperidin-1-yl)-propoxy]-quinolin-4-yloxy}-phenyl)-benzenesulfonamide], the melting point was 128 to 130 °C. In addition, in the data set on Hs578T [1], the pIC50 was at least 4.90. Further, the pIC50 with Hs578T [2] is at least 4.90. The molecule also gave a pIC50 in data set [3] of over 6.30. Further, the pIC50 with Hs578T [4] is 4.60 to 5.00.

`COc1cc2c(Oc3ccc(NS(=O)(=O)c4cc(F)ccc4F)cc3C)ccnc2cc1OCCCN1CCC(C)CC1` [Example 171, 2,5-Difluoro-N-(4-{6-methoxy-7-[3-(4-methyl-piperidin-1-yl)-propoxy]-quinolin-4-yloxy}-3-methyl-phenyl)-benzenesulfonamide] registered a melting point of 222 to 223 °C. The molecule also had a pIC50 in the data set with Hs578T [1] of 4.30 to 4.90. The pIC50 in the data set on Hs578T [2] was 4.30 to 4.90. Also, the pIC50 in data set [3] is 5.52 to 6.30. Besides, the pIC50 in the data set on Hs578T [4] was 4.60 to 5.00.

`COc1cc2c(Oc3ccc(NS(=O)(=O)c4c(F)cccc4F)cc3C)ccnc2cc1OCCCN1CCC(C)CC1` [Example 172, 2,6-Difluoro-N-(4-{6-methoxy-7-[3-(4-methyl-piperidin-1-yl)-propoxy]-quinolin-4-yloxy}-3-methyl-phenyl)-benzenesulfonamide] showed a melting point of 191 to 193 °C. This molecule also gave a pIC50 in the data set on Hs578T [1] of at least 4.90. The pIC50 with Hs578T [2] is at least 4.90. In data set [3], the pIC50 is 5.52 to 6.30. Moreover, the pIC50 in the data set on Hs578T [4] was at least 5.00.

`COc1cc2c(Oc3ccc(NS(=O)(=O)c4c(F)cccc4F)cc3OC)ccnc2cc1OCCCN1CCC(C)CC1` [Example 173, 2,6-Difluoro-N-(3-methoxy-4-{6-methoxy-7-[3-(4-methyl-piperidin-1-yl)-propoxy]-quinolin-4-yloxy}-phenyl)-benzenesulfonamide] yielded a melting point of 98 to 101 °C. In the data set on Hs578T [1], this molecule gave a pIC50 of 4.30 to 4.90. In the data set with Hs578T [2], the pIC50 was at least 4.90. Also, the pIC50 in data set [3] is 5.52 to 6.30. Besides, in the data set on Hs578T [4], the pIC50 was 4.60 to 5.00.

`COc1cc2c(Oc3ccc(NS(=O)(=O)c4ccccc4OC(F)(F)F)cc3C)ccnc2cc1OCCCN1CCC(C)CC1` [Example 174, N-(4-{6-Methoxy-7-[3-(4-methyl-piperidin-1-yl)-propoxy]-quinolin-4-yloxy}-3-methyl-phenyl)-2-trifluoromethoxy-benzenesulfonamide]: the melting point was 168 to 169 °C. The pIC50 in the data set with Hs578T [1] was at least 4.90. In addition, the pIC50 in the data set with Hs578T [2] is at least 4.90. The same molecule showed a pIC50 in data set [3] of 5.52 to 6.30. Further, the pIC50 in the data set with Hs578T [4] was at least 5.00.

In the case of `COc1cc2c(Oc3ccc(NS(=O)(=O)c4cc(Cl)ccc4Cl)cc3C)ccnc2cc1OCCCN1CCC(C)CC1` [Example 175, 2,5-Dichloro-N-(4-{6-methoxy-7-[3-(4-methyl-piperidin-1-yl)-propoxy]-quinolin-4-yloxy}-3-methyl-phenyl)-benzenesulfonamide], the melting point lay within 187 to 188 °C. Besides, the pIC50 in the data set with Hs578T [1] is at least 4.90. The pIC50 in the data set with Hs578T [2] is at least 4.90. Further, the pIC50 in data set [3] is 5.52 to 6.30. In addition, the pIC50 with Hs578T [4] was at least 5.00.

The molecule `COc1cc2c(Oc3ccc(NS(=O)(=O)c4c(Cl)cccc4Cl)cc3C)ccnc2cc1OCCCN1CCC(C)CC1` [Example 176, 2,6-Dichloro-N-(4-{6-methoxy-7-[3-(4-methyl-piperidin-1-yl)-propoxy]-quinolin-4-yloxy}-3-methyl-phenyl)-benzenesulfonamide] gave a melting point of 209 to 210 °C. Also, the pIC50 with Hs578T [1] is at least 4.90. In addition, the pIC50 in the data set with Hs578T [2] is at least 4.90. Moreover, in data set [3], the pIC50 was 5.52 to 6.30. The pIC50 with Hs578T [4] is at least 5.00.

Regarding `COc1cc2c(Oc3ccc(NS(=O)(=O)c4cc(Cl)ccc4Cl)cc3F)ccnc2cc1OCCCN(C)C` [Example 180, 2,5-Dichloro-N-{4-[7-(3-dimethylamino-propoxy)-6-methoxy-quinolin-4-yloxy]-3-fluoro-phenyl}-benzenesulfonamide], the melting point lay within 150 to 152 °C. In the data set on Hs578T [1], the pIC50 was at least 4.90. Also, in the data set with Hs578T [2], the pIC50 is at least 4.90. The molecule also had a pIC50 in data set [3] of over 6.30. In the data set on Hs578T [4], the pIC50 was at least 5.00.

In turn, `COc1cc2c(Oc3ccc(NS(=O)(=O)c4ccc(Cl)s4)cc3F)ccnc2cc1OCCCN(C)C` [Example 182, 5-Chloro-thiophene-2-sulfonic acid {4-[7-(3-dimethylamino-propoxy)-6-methoxy-quinolin-4-yloxy]-3-fluoro-phenyl}-amide] showed a melting point of 130 to 132 °C. In the data set with Hs578T [1], this molecule gave a pIC50 of at least 4.90. In the data set with Hs578T [2], the pIC50 is at least 4.90. The molecule further showed a pIC50 in data set [3] of over 6.30. In addition, the pIC50 in the data set on Hs578T [4] is 4.60 to 5.00.

Consider `COc1cc2c(Oc3ccc(NS(=O)(=O)c4ccco4)cc3F)ccnc2cc1OCCCN(C)C` [Example 185, Furan-2-sulfonic acid {4-[7-(3-dimethylamino-propoxy)-6-methoxy-quinolin-4-yloxy]-3-fluoro-phenyl}-amide], for which the melting point fell in the range of 185 to 187 °C. Further, in the data set on Hs578T [1], the pIC50 was 4.30 to 4.90. In the data set on Hs578T [2], the pIC50 was at least 4.90. For the same molecule, the pIC50 in data set [3] was 5.52 to 6.30. Moreover, the pIC50 in the data set on Hs578T [4] is 4.60 to 5.00.

For the origin of these results see patent publication US9169241B2, “Quinolinyloxyphenylsulfonamides” (Max-Planck-Gesellschaft Zur Forderung der Wissenschaften …, priority 2009, dated 2015).
